Data set [1] deals with T1, WT E. coli PNP (Escherichia coli, UniProt P0ABP8).
T1 construct: made in house
T1 sequence (P0ABP8 2-239 limits assumed): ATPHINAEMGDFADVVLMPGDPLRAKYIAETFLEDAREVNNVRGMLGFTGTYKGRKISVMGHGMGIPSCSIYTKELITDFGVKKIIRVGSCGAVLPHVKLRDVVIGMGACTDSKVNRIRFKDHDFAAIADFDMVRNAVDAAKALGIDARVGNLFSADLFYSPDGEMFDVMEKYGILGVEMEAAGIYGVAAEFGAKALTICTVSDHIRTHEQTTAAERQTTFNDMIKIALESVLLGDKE
As to the kind of experiment: Enzymatic specific activity, spectrophotometric assay. The following applies: WT PNP (reference = 100); pH 7.0, 50 mM Hepes, 25 °C, 50 mM phosphate. It counts as biochemical. Here is the method:
(§1) All activity measurements and kinetic studies were done in 50 mM Hepes/HCl buffer pH 7.0 at 25 °C as previously described for the WT E. coli PNP and its active-site mutants, using direct spectrophotometric assay for adenosine, guanosine and 7-methylguanosine as substrates, and a coupled assay with xanthine oxidase in the case of inosine[13],[28],[29]. Activity measurements were performed for each protein sample, before and after each experiment as a control of the state of the protein.

Data set [2] addresses T1, WT E. coli PNP. Also on record: method as in PMID 21672603. The note with it: pH 7.0, 50 mM Hepes, 25 °C, 50 mM phosphate; cited from earlier work.
Data set [3] concerns the target T2, Y160W PNP mutant (Escherichia coli, UniProt P0ABP8, Y161W). As to the kind of experiment: Enzymatic specific activity, spectrophotometric assay. On the set-up: made in house; host or cells: E. coli DH5α-T1. It counts as biochemical, E. coli. The note with it: pH 7.0, 50 mM Hepes, 25 °C, 50 mM phosphate; for Enzymatic specific activity relative to WT: Y160W vs WT; for Enzymatic specific activity: Y160W. How it is done: as §1

For data set [4], the target named is T1, WT E. coli PNP. As to the kind of experiment: Kinetic studies with variable substrate. It counts as biochemical. The note with it: nucleoside as variable substrate, 50 mM phosphate, Michaelis–Menten, pH 7.0, 25 °C. Here is the method: as §1
(§2) The classical Michaelis–Menten equation was fitted to the kinetic curves (i.e. initial rate of the reaction, v0, vs. initial substrate concentration, c0):1 v0c0=Vmax1c0/c0+KM1
(§3) Coefficients a and b express the degree of cooperation between the subunits in a dimer, while constants KM1 and Vmax1 characterize the active sites of the enzyme when the neighbouring site is free.
(§4) A more complex model was used if there was a statistically significant decrease in the residual sum of squares as judged by the F test at 95% confidence level.

Data set [5] deals with T2, Y160W PNP mutant. The following applies: nucleoside as variable substrate, 50 mM phosphate, Michaelis–Menten, pH 7.0, 25 °C. How it is done:
Activity measurements were performed for each protein sample, before and after each experiment as a control of the state of the protein.
as §2, §3, §4

The target of data set [6] is T1, WT E. coli PNP. Also on record: method as in PMID 30337572. The note with it: m^7Guo as variable substrate, 50 mM phosphate, Michaelis–Menten; cited from earlier work.
Data set [7] concerns Nc1nc2c(ncn2[C@@H]2O[C@H](CO)[C@@H](O)[C@H]2O)c(=O)[nH]1. As to the kind of experiment: purified protein, by the assay type. The following applies: other: Y160W, nucleoside as variable substrate, 50 mM phosphate, Michaelis–Menten, pH 7.0, 25 °C.
Substrate in data set [8]: Nc1nc2c(ncn2[C@@H]2O[C@H](CO)[C@@H](O)[C@H]2O)c(=O)[nH]1
As to the kind of experiment: Kinetic studies with variable substrate. The note with it: other: WT, nucleoside as variable substrate, 50 mM phosphate, Michaelis–Menten, pH 7.0, 25 °C. The format is biochemical, E. coli. Here is the method: as §1, §2, §3, §4

T2 sequence (P0ABP8 2-239 Y161W): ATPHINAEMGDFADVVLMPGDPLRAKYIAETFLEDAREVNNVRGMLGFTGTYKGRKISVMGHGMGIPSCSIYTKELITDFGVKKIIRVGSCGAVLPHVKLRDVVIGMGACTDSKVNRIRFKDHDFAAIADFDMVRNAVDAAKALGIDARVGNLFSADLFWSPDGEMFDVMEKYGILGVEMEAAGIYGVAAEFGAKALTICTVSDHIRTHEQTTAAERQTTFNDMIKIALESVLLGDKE

As to `Nc1ncnc2c1ncn2[C@@H]1O[C@H](CO)[C@@H](O)[C@H]1O` [Ado, Adenosine], the results for the “Enzymatic specific activity relative to WT” value on WT E. coli PNP [1] and at Y160W PNP mutant [3] were 100% and 112%, respectively. The Enzymatic specific activity is given as 58.5 ± 5.9 U/mg at WT E. coli PNP [2] and 65.6 ± 14.2 U/mg at Y160W PNP mutant [3].

For `Nc1nc2c(ncn2[C@@H]2O[C@H](CO)[C@@H](O)[C@H]2O)c(=O)[nH]1` [Guo, Guanosine], the entries for the “Enzymatic specific activity relative to WT” value at WT E. coli PNP [1] and at Y160W PNP mutant [3] were 100% and 60%, respectively. Further, the Enzymatic specific activity on WT E. coli PNP [2] was 60.4 ± 6.7 U/mg; on Y160W PNP mutant [3], 36.2 ± 2.0 U/mg.

`O=c1[nH]cnc2c1ncn2[C@@H]1O[C@H](CO)[C@@H](O)[C@H]1O` [Ino, Inosine]: the “Enzymatic specific activity relative to WT” value came to 100% on WT E. coli PNP [1] and 88% on Y160W PNP mutant [3]. The Enzymatic specific activity at WT E. coli PNP [2] was 103.2 ± 4.0 U/mg; at Y160W PNP mutant [3], 91.1 ± 8.9 U/mg.

For `C[n+]1cn([C@@H]2O[C@H](CO)[C@@H](O)[C@H]2O)c2nc(N)[nH]c(=O)c21` [m^7Guo, 7-Methylguanosine], the entries for the “Enzymatic specific activity relative to WT” value at WT E. coli PNP [1] and at Y160W PNP mutant [3] were 100% and 108%, respectively. The Vmax at WT E. coli PNP [4] is 22.7 ± 0.3 U/mg; at Y160W PNP mutant [5], 21 ± 1 U/mg. The Km (usually the substrate concentration at which the rate is half of its maximum) at Y160W PNP mutant [5] is 71.3 ± 3 µM; on WT E. coli PNP [6], 27.2 µM. For the same molecule, the Enzymatic specific activity at WT E. coli PNP [2] is given as 21.4 ± 1.6 U/mg; at Y160W PNP mutant [3] it was 23.2 ± 1.2 U/mg.

“Y160W PNP mutant (Escherichia coli K-12; Y161W)”: in data set [7], the Km turned out to be 128 ± 2 µM and the Vmax is listed as 42.8 ± 0.3 U/mg.

B1: WT E. coli PNP (Escherichia coli K-12) (protein)
chain: T1 sequence (P0ABP8 2-239 limits assumed)
notes: made in house
Regarding B1, in data set [8], the Km turned out to be 28 ± 4 µM and the Vmax was determined as 51.1 ± 2.3 U/mg.

Source of the values: PMC8160210, “Single tryptophan Y160W mutant of homooligomeric E. coli purine nucleoside phosphorylase implies that dimers forming the hexamer are functionally not equivalent” (Scientific Reports, 2021).
